Data set [1] has as its system HT-22 cells. Description: Oxidative stress (H2O2) model in cultured HT-22 cells (MTT test). The settings on record: for neuronal survival under oxidative stress: added 24 hours prior to the stress exposure, 10^−8 M to 10^−5 M; for Optical density (MTT): 24 h before H2O2. The format is cell-based, mouse. On the technique in general: Formazan colour is commonly taken as a measure of viable cells.
Description: To induce an oxidative stress, the cells were placed in a growth medium containing 5% FBS, then a freshly prepared H2O2 solution was added to a final concentration of 1.5 mM and incubated for 30 min at 37° C. and 5% CO2. Thereafter, the medium was replaced with a new one and the cells were cultured for 4 h under the same conditions.
The determination of cell viability was carried out by MTT test. […] At the end of an experiment the growth medium was replaced with an MTT solution (0.5 mg/ml) and incubated for 30 min at 37° C. and 5% CO2. The MTT solution was then removed from the wells and DMSO was added to dissolve the formazan precipitate. Then the optical density was measured using a Multiscan (Thermo) spectrophotometer at a wavelength of 600 nm.

Data set [2] relates to PC12 cell line. Put plainly: Cellular model of Parkinson's disease (MPTP, MTT test). Format: cell-based, rat. The settings on record: added 24 hours prior to MPTP 1 mM. How it is done: To produce a model for Parkinson's disease, MPTP was used at a final concentration of 1 mM (Shimoke K., Chiba H. Nerve growth factor prevents 1-methyl-[…]-1,2,3,6-tetrahydropyridine-induced cell death via the Akt pathway by suppressing caspase-3-like activity using PC12 cells: relevance to therapeutic application for Parkinson's disease. J. Neurosci. Res. 2001, 63, 402-409). MPTP was added to the cell growth medium containing 1% FBS at 24 hours after passage. The peptides were added to the cell growth medium concurrently with MPTP or 24 h before MPTP. Cell viability was determined at 24 h using an MTT test.

Data set [3] concerns PC12 cells. Description: Differentiation of PC12 cells and modulation of the differentiation-inducing activity of NGF. Format: cell-based, rat. As to conditions: for distance of branching points of the longest processes from the cell body / length of the longest processes: peptide + NGF (GK-3 10^−6 M, GK-4 10^−7 M, GK-5 10^−6 M). As to the method:
The rat adrenal […] pheochromocytoma cell line PC12 was obtained from the Cell Culture Museum, RAN Institute of Molecular Genetics. The immortalized mouse hippocampal cell line HT-22 was a gift from Prof. F. Viegant, Utrecht University, the Netherlands.
At the time of plating, either NGF (100 ng/ml, positive control) or a test compound was added to a final concentration of 10^−5 to 10^−9 M in the growth medium. Thereafter, the test peptides and NGF were added to the medium every 24 hours in one series of experiments and every 48 hours in another series, for a total of 6 days. The extent of cell differentiation was estimated on the basis of the shape and size of the cells and the number and length of the processes.
NGF was used as a positive control at a final concentration of 100 ng/ml.

Data set [4] relates to Hsp70. Put plainly: Western blot of Hsp70 in HT-22 cells. The format is cell-based, mouse. As to conditions: for amount of Hsp70: 24 h after addition, GK-1, GK-2 10^−8 and 10^−5 M, GK-3 10^−6 M, GK-4 10^−7 M, GK-5 10^−6 M. As to the method:
(§1) The amount of Hsp70, Hsp32 and pTrkA was determined in the cytoplasmic fraction of HT-22 neuronal cells. For heat shock proteins, a test compound was added to the culture 24 hours prior to testing, before the cells were washed off the culture liquid with PBS. For pTrkA, a test compound was added to the culture immediately prior to the cell lysis just for 1 or 2 min, before the cells were washed off the culture liquid with PBS. Then the cells were mixed with the lysis buffer (50 mM Tris-HCl, 5 mM EDTA, 1 mM DTT, 1% Triton X-100, pH 7.5) at 4° C. and lysed for 5 min, then scraped off, transferred into a 1.5 ml centrifuge tube and centrifuged at 13000 rpm and 4° C. for 10 min. The supernatant containing cytosolic proteins was assayed by electrophoresis and immunoblotting. Proteins were separated on a 10% polyacrylamide gel (PAAG) and transferred from PAAG onto a PVDF membrane by electroelution for 45 min. Western blots were pre-incubated for 1 h in a TBST solution containing 1% Tween-20 and supplemented with 5% (w/v) skim milk. Western blots were then incubated with the primary polyclonal anti-Hsp32 antibody diluted 1:1000 or primary monoclonal anti-Hsp70 antibody diluted 1:1000 or primary monoclonal anti-phosphorylated tyrosine kinase A antibody diluted 1:1000 for 1 hour. Then the blots were washed and incubated with a secondary antibody conjugated to horseradish peroxidase (diluted 1:2000) for 1 hour. The detection of Hsp70, Hsp32 and pTrkA was carried out by the ECL reaction on a Kodak film.
On the technique in general: A western blot detects proteins with antibodies after separation by electrophoresis.

The test system of data set [5] is Hsp32. Put plainly: Western blot of Hsp32 in HT-22 cells. The settings on record: for amount of Hsp32: 24 h after addition, GK-1, GK-2 10^−8 and 10^−5 M, GK-3 10^−6 M, GK-4 10^−7 M, GK-5 10^−6 M. Format: cell-based, mouse. How it is done: as §1
Data set [6] has as its system HT-22 cells. The settings on record: added 24 hours prior to glutamate. How it is done: The determination of cell viability was carried out by MTT test. MTT is a water soluble tetrazolium salt of yellow color which readily permeates cells. In living cells, MTT is converted into water insoluble formazan crystals of violet color. At the end of an experiment the growth medium was replaced with an MTT solution (0.5 mg/ml) and incubated for 30 min at 37° C. and 5% CO2. The MTT solution was then removed from the wells and DMSO was added to dissolve the formazan precipitate. Then the optical density was measured using a Multiscan (Thermo) spectrophotometer at a wavelength of 600 nm.

In data set [7] the target is T1, tyrosine kinase A (TrkA) (Mus musculus, UniProt Q3UFB7).
T1 construct: phosphorylation of tyrosine kinase A in cultured hippocampal neuronal cell line HT22; endogenous in cells; host or cells: HT-22 hippocampal neuronal cell line
Description: Tyrosine kinase A phosphorylation in HT-22 cells (Western blot). The format is cell-based. As to conditions: first minute of exposure. As to the method:
as §1

Where [8] appears, read: GK-1 10^−5 M added 30 minutes before GK-2.

The structures appear in SMILES notation. Numbered stars: 1 amine (or outer) side, 2 acyl side, 3 side chain; on linkers, the order of the positions; unused ones are H or OH. Bridge positions count the residues as written; N and C are the ends. Square brackets hold non-standard residues; d marks the D form. Peptide text beside a SMILES is read from it. I, II: the chains in the order shown. Ethylenediamine = C(CN[*:2])N[*:1]; Suc = O=C(CCC(=O)[*:2])[*:1]; Ahx = NCCCCCC(=O)O

T1 sequence (Q3UFB7 34-799): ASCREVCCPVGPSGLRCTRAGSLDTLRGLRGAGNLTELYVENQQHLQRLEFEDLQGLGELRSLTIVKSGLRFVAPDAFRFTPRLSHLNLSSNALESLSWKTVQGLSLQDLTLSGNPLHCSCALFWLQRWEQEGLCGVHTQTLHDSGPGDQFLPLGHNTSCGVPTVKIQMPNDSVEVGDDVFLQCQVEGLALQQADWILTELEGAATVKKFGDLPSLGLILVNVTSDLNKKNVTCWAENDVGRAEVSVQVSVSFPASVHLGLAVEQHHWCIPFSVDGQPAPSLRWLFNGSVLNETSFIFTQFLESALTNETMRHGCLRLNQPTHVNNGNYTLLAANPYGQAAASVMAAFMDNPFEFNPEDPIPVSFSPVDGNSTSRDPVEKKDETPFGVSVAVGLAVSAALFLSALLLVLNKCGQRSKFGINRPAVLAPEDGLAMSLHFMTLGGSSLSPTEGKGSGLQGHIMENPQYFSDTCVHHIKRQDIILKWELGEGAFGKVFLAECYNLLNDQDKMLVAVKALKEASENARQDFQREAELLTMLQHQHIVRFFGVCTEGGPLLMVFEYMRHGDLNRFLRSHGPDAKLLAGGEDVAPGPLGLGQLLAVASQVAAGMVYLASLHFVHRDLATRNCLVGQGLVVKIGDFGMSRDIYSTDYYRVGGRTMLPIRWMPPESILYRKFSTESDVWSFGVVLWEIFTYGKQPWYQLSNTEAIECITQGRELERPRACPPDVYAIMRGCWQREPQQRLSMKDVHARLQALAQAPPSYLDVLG

`NCCCC[C@H](NC(=O)[C@H](CCC(=O)O)NC(=O)CCC(=O)O)C(=O)NCCCCCNC(=O)[C@H](CCCCN)NC(=O)[C@H](CCC(=O)O)NC(=O)CCC(=O)O` [GK-2b, bis-(N-monosuccinyl-glutamyl-lysine)pentamethylenediamide]: in data set [1], the “neuronal survival under oxidative stress” value is “improved the neuronal survival”.

Consider `NCCCCCC(=O)NCC(=O)N[C@@H](CCCCN)C(=O)NCCCCCCNC(=O)[C@H](CCCCN)NC(=O)CNC(=O)CCCCCN` [GK-6, bis-(N-(6-aminocaproyl)glycyl-lysine) hexamethylenediamide], for which the “neuronal survival under oxidative stress” value in data set [1] was “improved the neuronal survival”.

As for `CC(=O)NC(CCCCN)C(=O)NC(CCC(=O)O)C(=O)NCCCCCCNC(=O)C(CCC(=O)O)NC(=O)C(CCCCN)NC(C)=O` (centres unmarked) [GK-4, bis-(N-acetyl-lysyl-glutamic acid) hexamethylenediamide], the “protective effect against MPTP” value in data set [2] was “protective effect”. The “Max. length of cell processes, μm on day 6” value was 67 ± 4.5′ μm in data set [3] (10^−6M + NGF 30 ng/ml); 73 ± 9.5′ μm in data set [3] (10^−6M + NGF 50 ng/ml); 55 ± 11.3′ μm in data set [3] (10^−6M + NGF 100 ng/ml); 52 ± 10.3′ μm in data set [3] (10^−7M + NGF 30 ng/ml); 56 ± 13.2′ μm in data set [3] (10^−7M + NGF 50 ng/ml); 65 ± 12.2′ μm in data set [3] (10^−7M + NGF 100 ng/ml). Also, the “intercalary neurons in the differentiated cell population” value in data set [3] (GK-4 10^−7 M + NGF) amounted to 90%. Moreover, in data set [3], the “distance of branching points of the longest processes from the cell body” value (“distance” below) stood at 20 μm. Also, in data set [3], the “length of the longest processes” value is 65 μm. Besides, in data set [4], the “amount of Hsp70” value is “significant increase”. Moreover, the “amount of Hsp32” value in data set [5] is given as “no effect on Hsp32”. Besides, the “protective effect against glutamate cytotoxicity” value in data set [6] is listed as “protective effect”.

On to `NCCCC[C@H](NC(=O)[C@H](CCC(=O)O)NC(=O)CCC(=O)O)C(=O)NCCCCCC(=O)NCCCNC(=O)CCCCCNC(=O)[C@H](CCCCN)NC(=O)[C@H](CCC(=O)O)NC(=O)CCC(=O)O` [GK-2a, bis-(N-monosuccinyl-glutamyl-lysyl-6-aminohexanoic acid) trimethylenediamide], for which the “protective effect against MPTP” value in data set [2] is given as “protective effect”. Moreover, the “Optical density (MTT)” value in data set [1] (Table 1.5, 10^−5M, control 0.1275 ± 0.021, H2O2 0.087 ± 0.006) is 0.108 ± 0.019^; in data set [1] (Table 1.5, 10^−6M, control 0.1275 ± 0.021, H2O2 0.087 ± 0.006), 0.429 ± 0.02; in data set [1] (Table 1.5, 10^−7M, control 0.1275 ± 0.021, H2O2 0.087 ± 0.006) it was 0.449 ± 0.024; in data set [1] (Table 1.5, 10^−8M, control 0.1275 ± 0.021, H2O2 0.087 ± 0.006), 0.106 ± 0.028. For the same molecule, the “neuronal survival under oxidative stress” value in data set [1] is “improved the neuronal survival”.

`NCCCC[C@H](NC(=O)[C@H](CCC(=O)O)NC(=O)CCC(=O)O)C(N)=O` [GK-1, N-monosuccinyl-glutamyl-lysine amide] (Suc-Glu-Lys-NH2): in data set [3] (GK-1 10^−5 M, counting differentiated and undifferentiated cells), the “decrease of the differentiation-promoting effect of NGF” value is 50%. The “effect on the neuroprotective effect of GK-2” value in data set [1] (setting [8]) is “eliminated the neuroprotective effect of GK-2”. Besides, the “neuronal survival under oxidative stress” value in data set [1] is reported as “impaired the neuronal survival”. In data set [7], the “level of phosphorylated tyrosine kinase A” value (“level” below) is on record as “decreased”. The “amount of Hsp70” value in data set [4] is “no effect”. The “amount of Hsp70 induced by GK-2” value in data set [4] (setting [8]) is recorded as “no increase”. For the same molecule, the “amount of Hsp32” value in data set [5] was “no effect”. The “amount of Hsp32 induced by GK-2” value in data set [5] (setting [8]) is listed as “no increase”.

Turning to `CC(=O)N[C@@H](CCCCN)C(=O)N[C@@H](CCC(=O)O)C(N)=O` [GK-3, N-acetyl-lysyl-glutamic acid amide] (Ac-Lys-Glu-NH2), in data set [2], the “protective effect against MPTP” value is “protective effect”. Besides, the “distance” value in data set [3] was determined as 25 μm. In data set [3], the “length of the longest processes” value is listed as “not significantly different”. Further, the “Optical density (MTT)” value is 0.109 ± 0.019 in data set [1] (Table 1.6, 10^−5M, control 0.111 ± 0.009, H2O2 0.093 ± 0.004); 0.110 ± 0.014^ in data set [1] (Table 1.6, 10^−6M, control 0.111 ± 0.009, H2O2 0.093 ± 0.004); 0.099 ± 0.014 in data set [1] (Table 1.6, 10^−7M, control 0.111 ± 0.009, H2O2 0.093 ± 0.004); 0.091 ± 0.014 in data set [1] (Table 1.6, 10^−8M, control 0.111 ± 0.009, H2O2 0.093 ± 0.004). Also, the “neuronal survival under oxidative stress” value in data set [1] is “improved the neuronal survival”. Besides, the “level” value in data set [7] is given as “increased”. Besides, in data set [4], the “amount of Hsp70” value was “no effect on Hsp70”. Also, the “amount of Hsp32” value in data set [5] is “small increase”.

As for `NCCCC[C@H](NC(=O)[C@H](CCC(=O)O)NC(=O)CCC(=O)O)C(=O)NCCNC(=O)[C@H](CCCCN)NC(=O)[C@H](CCC(=O)O)NC(=O)CCC(=O)O` [GK-2e, bis-(N-monosuccinyl-glutamyl-lysine)ethylenediamide] (I: Suc-Glu-Lys / II: Suc-Glu-Lys; linker I:C-II:C via Ethylenediamine), in data set [1], the “neuronal survival under oxidative stress” value was “improved the neuronal survival”.

As for `NCCCCCC(=O)NCC(=O)N[C@@H](CCCCN)C(N)=O` [GK-5, N-(6-aminocaproyl)-glycyl-lysine amide] (H-[Ahx]-Gly-Lys-NH2), the “protective effect against MPTP” value in data set [2] was “inactive”. Also, the “distance” value in data set [3] was “not different”. Further, the “length of the longest processes” value in data set [3] was 55 μm. Also, in data set [3] (peptide alone, 10^−8 to 10^−5 M, NGF 100 ng/ml as positive control), the “differentiation of PC-12 cells” value is “differentiation-promoting effect at 10^−6 M and 10^−5 M”. In addition, the “Optical density (MTT)” value in data set [1] (Table 1.8, 10^−5M, control 0.097 ± 0.009, H2O2 0.056 ± 0.009) was 0.065 ± 0.008; in data set [1] (Table 1.8, 10^−6M, control 0.097 ± 0.009, H2O2 0.056 ± 0.009), 0.066 ± 0.008^; in data set [1] (Table 1.8, 10^−7M, control 0.097 ± 0.009, H2O2 0.056 ± 0.009), 0.062 ± 0.009; in data set [1] (Table 1.8, 10^−8M, control 0.097 ± 0.009, H2O2 0.056 ± 0.009), 0.058 ± 0.007. The “neuronal survival under oxidative stress” value in data set [1] is recorded as “improved the neuronal survival”. Further, the “level” value in data set [7] is on record as “increased”. Moreover, the “amount of Hsp70” value in data set [4] is reported as “no effect on Hsp70”. In addition, in data set [5], the “amount of Hsp32” value is “increase in the synthesis of Hsp32”.

These data come from patent US9683014B2, “Dipeptide mimetics of NGF and BDNF neurotrophins” (UCHREZHDENIE ROSSIISKOI AKADEMII MEDITSYNSKIKH NAUK …, priority 2009, dated 2017).
